Non-standard residues stand in square brackets, D forms with d. No end group written: not given here.
Test system: GFP expressing U2OS cells and GFP expressing Hek293 cells
Test: Screening of adhesion D-amino peptide library for low fluorescence/high adherence properties
Format: cell-based, Human
Conditions: re-synthesized adhesion peptides on PEGA beads; six re-synthesized plus four additional peptides compared
Experimental: Approx. 100 adhesion peptide library beads were mixed with 1×10E6 cells (BHK, CHO, U2OS, Hek) in each well of a Falcon 12 well plate using 2 ml growth medium. The adhesion peptide library was prepared according to the general methods for solid phase peptide synthesis outlined above. The library consisted of heptamers of D-amino acids. The peptide library beads were PEGA beads each coupled to a potential adhesion peptide. The cells and beads were mixed gently every 15 min for 2 hrs. Supernatant with non-attached cells were removed and new growth medium added. Cells/beads were incubating for another 16 hrs. (37° C., 5% CO2). Cell adhesive beads were identified using a microscope with 10× objective and positive beads were transferred to a filter paper (to suck off medium). Peptides were identified by amino acid sequencing.
An adhesion D-amino peptide library was synthesized (500.000 members) as described above in Example 2a and screened for low fluorescence/high adherence properties. This was done in 4 steps: • 1) Selection of low fluorescent beads by Fluorescence Activated Bead Sorting (FABS). […]
The 150.000 low fluorescent beads were incubated with GFP expressing U2OS cells followed by FABS sorting for high fluorescence (high cell adhesion). […] 47 beads with high cell adhesion properties were isolated using a fluorescence microscope. • 4) Sequence elucidation and re-synthesis of selected peptides. […]

## SEQ ID 35: adhesion peptide arg gln arg ile arg (D-amino acids) ([dR][dQ][dR][dI][dR])
  overall performance (low fluorescence/high adherence properties): best overall performance

— patent publication US9150899B2, “Identification of compounds modifying a cellular response” (2cureX, priority 2004, dated 2015)
